For data set [1], the system named is Rattus norvegicus. The experiment in a line: Antiinflammatory activity in OVA-induced Brown Norway rat lung assessed as reduction in leukocyte trafficking in microvasculature administered po bid 1 hr prior to antigen challenge and every 12 hrs prior to termination 96 hrs post challenge by histopathological analysis. The class given is functional, organism-based.

For data set [2], the target named is C-C chemokine receptor type 5 (Homo sapiens) (UniProt P51681). The experiment in a line: Antagonist activity at CCR5 (unknown origin) at 10 uM. Format: functional.
Data set [3] can be described thus: Half life in rat at 9 umol/kg, po or 3 umol/kg, iv. Format: ADME, organism-based. The following applies: in vivo.
The target in data set [4] is T1, C-C chemokine receptor type 4 (Homo sapiens, UniProt P51679).
T1 sequence (P51679 whole entry): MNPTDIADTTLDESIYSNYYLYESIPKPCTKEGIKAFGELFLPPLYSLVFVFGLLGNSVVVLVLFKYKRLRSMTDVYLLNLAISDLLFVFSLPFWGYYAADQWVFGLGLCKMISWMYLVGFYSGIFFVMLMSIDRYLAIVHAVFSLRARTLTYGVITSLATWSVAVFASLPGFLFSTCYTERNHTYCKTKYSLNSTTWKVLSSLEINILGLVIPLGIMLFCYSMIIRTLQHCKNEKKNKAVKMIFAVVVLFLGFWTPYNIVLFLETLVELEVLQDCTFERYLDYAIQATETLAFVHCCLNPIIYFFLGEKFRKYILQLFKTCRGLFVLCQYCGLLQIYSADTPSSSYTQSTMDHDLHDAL
As to the kind of experiment: Antagonist activity at recombinant human CCR4 expressed in CHO-K1 cells assessed as inhibition of CCL22 induced Ca2+ mobilization after 2 hrs by FMAT based fluorescence assay. The class given is functional, cell-based.

The nature of data set [5]: Lipophilicity, log P of the compound. The class given is physicochemical. The following applies: octanol/water.
In data set [6] the target is T2, C-C chemokine receptor type 4 (Mus musculus, UniProt P51680).
T2 sequence (P51680 whole entry): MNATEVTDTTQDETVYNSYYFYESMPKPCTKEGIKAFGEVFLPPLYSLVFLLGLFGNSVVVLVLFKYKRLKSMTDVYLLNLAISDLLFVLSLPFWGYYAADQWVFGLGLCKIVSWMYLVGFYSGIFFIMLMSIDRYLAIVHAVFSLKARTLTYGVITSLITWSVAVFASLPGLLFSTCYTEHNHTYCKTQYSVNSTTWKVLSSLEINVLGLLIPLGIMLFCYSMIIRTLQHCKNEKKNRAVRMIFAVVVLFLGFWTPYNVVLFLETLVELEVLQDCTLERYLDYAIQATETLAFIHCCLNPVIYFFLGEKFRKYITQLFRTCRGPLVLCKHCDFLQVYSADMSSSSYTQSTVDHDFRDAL
As to the kind of experiment: Antagonist activity at mouse CCR4. Format: functional.

Data set [7] in a line: Ratio of free plasma concentration in Brown Norway rat at 3 umol/kg to pIC50 for recombinant human CCR4 expressed in CHO-K1 cells. The class given is ADME, cell-based. The conditions noted are these: in vivo.
Data set [8] is described as follows: Volume of distribution at steady state in rat at 9 umol/kg, po or 3 umol/kg, iv. Format: ADME, organism-based. The following applies: in vivo, read-out: Vdss.
Data set [9] in a line: Protein binding in human plasma. The following applies: read-out: PPB (converted). Format: ADME, cell-free.
Data set [10] can be described thus: Terminal trough concentration in OVA-induced Brown Norway rat plasma at 3 umol/kg, po bid measured 12 hrs post last dose. Format: ADME, organism-based. The conditions noted are these: read-out: Cmin.
A short description of data set [11]: Lipophilicity, log D of the compound. Format: physicochemical. The following applies: octanol/water.
Data set [12] can be described thus: Solubility of the compound. Format: physicochemical.
Data set [13] addresses C-C chemokine receptor type 8 (Homo sapiens) (UniProt P51685). As to the kind of experiment: Antagonist activity at CCR8 (unknown origin) at 10 uM. The class given is functional.
Data set [14] is described as follows: Half life in dog at 9 umol/kg, po or 3 umol/kg, iv. Format: ADME, organism-based, Canis lupus familiaris. The following applies: in vivo.
Data set [15] can be described thus: Ratio of free plasma concentration in Brown Norway rat at 7.5 umol/kg to pIC50 for recombinant human CCR4 expressed in CHO-K1 cells. The class given is ADME, cell-based. The conditions noted are these: in vivo.
For data set [16], the system named is Rattus norvegicus. The experiment in a line: Antiinflammatory activity in OVA-induced Brown Norway rat lung assessed as reduction in alveolitis administered po bid 1 hr prior to antigen challenge and every 12 hrs prior to termination 96 hrs post challenge by histopathological analysis. Format: functional, organism-based.
Data set [17] deals with T3, C-C chemokine receptor type 4 (Homo sapiens) (UniProt P51679).
T3 sequence (whole entry): T1 sequence (P51679 whole entry)
As to the kind of experiment: Agonist activity at CCR4 (unknown origin) up to 10 uM. The class given is functional.

Values after ≈ are worked out from the molar mass of the structure shown. Active and inactive are the calls of the source. The rule behind the calls is not given here.

In general, half-life refers to how long it takes for the measured level to halve. High values mean slow loss, low ones fast loss. In general, IC50 refers to the concentration that gives 50% inhibition. As usually defined, the logP is the decadic logarithm of the partition coefficient of the neutral form, usually between octanol and water. Read a high logP as a more lipophilic compound. As a reminder, the logD is lipophilicity at a set pH, counting ionised and neutral species. High values mean a more lipophilic compound, low ones a more hydrophilic compound. One may read the solubility as the concentration that dissolves in the medium under given conditions.

C-C chemokine receptor type 5 (Homo sapiens), sequence (P51681 whole entry, looked up): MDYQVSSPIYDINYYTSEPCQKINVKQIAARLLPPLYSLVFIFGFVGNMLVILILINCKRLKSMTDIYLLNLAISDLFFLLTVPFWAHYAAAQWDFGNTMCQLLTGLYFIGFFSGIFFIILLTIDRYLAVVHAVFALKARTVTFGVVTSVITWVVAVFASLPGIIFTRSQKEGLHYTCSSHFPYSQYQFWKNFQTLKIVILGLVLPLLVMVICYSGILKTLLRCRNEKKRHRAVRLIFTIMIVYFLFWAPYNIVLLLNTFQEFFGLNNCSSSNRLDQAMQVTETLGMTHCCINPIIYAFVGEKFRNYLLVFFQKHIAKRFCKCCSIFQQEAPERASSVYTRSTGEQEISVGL
C-C chemokine receptor type 8 (Homo sapiens), sequence (P51685 whole entry): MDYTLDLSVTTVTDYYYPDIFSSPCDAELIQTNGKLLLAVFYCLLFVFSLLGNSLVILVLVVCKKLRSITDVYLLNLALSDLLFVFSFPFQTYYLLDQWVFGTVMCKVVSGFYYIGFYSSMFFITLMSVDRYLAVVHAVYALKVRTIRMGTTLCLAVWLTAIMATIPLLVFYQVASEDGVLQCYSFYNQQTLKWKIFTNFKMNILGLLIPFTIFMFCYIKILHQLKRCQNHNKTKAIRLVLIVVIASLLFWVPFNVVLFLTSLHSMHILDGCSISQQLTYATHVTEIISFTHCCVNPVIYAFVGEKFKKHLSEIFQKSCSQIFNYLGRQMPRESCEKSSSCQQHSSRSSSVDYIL

Consider `COc1nccnc1NS(=O)(=O)c1cccc(Cl)c1Cl`, for which the Activity result in [1] and in data set [16] was “Dose-dependent effect” in each case. The outcome in [2], in data set [13] and in data set [17] was inactive. For the same compound, the half-life was 1.7 h in [3] and 1 h in data set [14]. For the same compound, the IC50 in [4] is 0.0158 µM; in [6] it was 0.01 µM. Also, the logP in data set [5] stood at 2.5. The Ratio was 0.6 in data set [7] and 3 in data set [15]. Besides, the Vd in [8] stood at 0.2 L/kg. The fraction unbound in [9] is 0.011. In addition, the concentration at 12 h in data set [10] is 0.033 µM. In addition, the logD in data set [11] was determined as 0.35. The compound also came in with a solubility in data set [12] of 1.5 mg/mL (≈ 4.49 mM).
